Experimental data published in ChEMBL document CHEMBL3875218, “Bifunctional conjugates with potent inhibitory activity towards cyclooxygenase and histone deacetylase” (Bioorg Med Chem, 2017).

Legend:
[1] = target: Histone deacetylase 1 (Homo sapiens, UniProt Q13547); assay: Inhibition of HDAC1 (unknown origin) after 24 hrs by SAMDI mass spectroscopic analysis
[2] = target: Histone deacetylase 2 (Homo sapiens, UniProt Q92769); assay: Inhibition of HDAC2 (unknown origin) after 24 hrs by SAMDI mass spectroscopic analysis
Chain of Histone deacetylase 2 (Q92769 whole entry): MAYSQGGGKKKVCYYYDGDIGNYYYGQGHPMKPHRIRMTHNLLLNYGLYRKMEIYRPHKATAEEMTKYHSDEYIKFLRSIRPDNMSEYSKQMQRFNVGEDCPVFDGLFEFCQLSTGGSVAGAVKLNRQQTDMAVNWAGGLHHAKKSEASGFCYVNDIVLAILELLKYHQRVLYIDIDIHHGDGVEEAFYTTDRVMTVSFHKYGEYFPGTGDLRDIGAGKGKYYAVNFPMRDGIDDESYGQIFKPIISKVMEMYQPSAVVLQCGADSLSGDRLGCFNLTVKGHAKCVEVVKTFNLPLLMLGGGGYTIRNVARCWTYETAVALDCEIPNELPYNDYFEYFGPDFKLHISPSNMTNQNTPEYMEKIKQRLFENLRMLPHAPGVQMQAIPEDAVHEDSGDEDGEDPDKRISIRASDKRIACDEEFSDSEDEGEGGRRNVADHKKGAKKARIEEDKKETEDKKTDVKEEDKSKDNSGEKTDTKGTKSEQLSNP

[3] = target: Histone deacetylase 3 (Homo sapiens, UniProt O15379); assay: Inhibition of HDAC3 (unknown origin) after 5 hrs by SAMDI mass spectroscopic analysis
Chain of Histone deacetylase 3 (O15379 whole entry): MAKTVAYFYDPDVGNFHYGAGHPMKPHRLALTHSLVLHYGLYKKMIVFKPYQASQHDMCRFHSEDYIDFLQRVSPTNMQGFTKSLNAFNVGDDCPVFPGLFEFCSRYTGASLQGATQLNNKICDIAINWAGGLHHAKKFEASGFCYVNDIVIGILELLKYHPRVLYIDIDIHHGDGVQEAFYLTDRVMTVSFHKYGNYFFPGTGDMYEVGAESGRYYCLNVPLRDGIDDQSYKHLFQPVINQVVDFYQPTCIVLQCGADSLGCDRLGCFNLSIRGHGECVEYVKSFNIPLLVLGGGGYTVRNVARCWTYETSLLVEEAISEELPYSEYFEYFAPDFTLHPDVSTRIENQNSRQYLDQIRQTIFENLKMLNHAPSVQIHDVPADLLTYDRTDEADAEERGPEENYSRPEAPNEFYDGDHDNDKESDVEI

[4] = target: T1, Protein deacetylase HDAC6 (Homo sapiens, UniProt Q9UBN7); assay: Inhibition of HDAC6 (unknown origin) after 20 hrs by SAMDI mass spectroscopic analysis
T1 sequence (Q9UBN7 whole entry): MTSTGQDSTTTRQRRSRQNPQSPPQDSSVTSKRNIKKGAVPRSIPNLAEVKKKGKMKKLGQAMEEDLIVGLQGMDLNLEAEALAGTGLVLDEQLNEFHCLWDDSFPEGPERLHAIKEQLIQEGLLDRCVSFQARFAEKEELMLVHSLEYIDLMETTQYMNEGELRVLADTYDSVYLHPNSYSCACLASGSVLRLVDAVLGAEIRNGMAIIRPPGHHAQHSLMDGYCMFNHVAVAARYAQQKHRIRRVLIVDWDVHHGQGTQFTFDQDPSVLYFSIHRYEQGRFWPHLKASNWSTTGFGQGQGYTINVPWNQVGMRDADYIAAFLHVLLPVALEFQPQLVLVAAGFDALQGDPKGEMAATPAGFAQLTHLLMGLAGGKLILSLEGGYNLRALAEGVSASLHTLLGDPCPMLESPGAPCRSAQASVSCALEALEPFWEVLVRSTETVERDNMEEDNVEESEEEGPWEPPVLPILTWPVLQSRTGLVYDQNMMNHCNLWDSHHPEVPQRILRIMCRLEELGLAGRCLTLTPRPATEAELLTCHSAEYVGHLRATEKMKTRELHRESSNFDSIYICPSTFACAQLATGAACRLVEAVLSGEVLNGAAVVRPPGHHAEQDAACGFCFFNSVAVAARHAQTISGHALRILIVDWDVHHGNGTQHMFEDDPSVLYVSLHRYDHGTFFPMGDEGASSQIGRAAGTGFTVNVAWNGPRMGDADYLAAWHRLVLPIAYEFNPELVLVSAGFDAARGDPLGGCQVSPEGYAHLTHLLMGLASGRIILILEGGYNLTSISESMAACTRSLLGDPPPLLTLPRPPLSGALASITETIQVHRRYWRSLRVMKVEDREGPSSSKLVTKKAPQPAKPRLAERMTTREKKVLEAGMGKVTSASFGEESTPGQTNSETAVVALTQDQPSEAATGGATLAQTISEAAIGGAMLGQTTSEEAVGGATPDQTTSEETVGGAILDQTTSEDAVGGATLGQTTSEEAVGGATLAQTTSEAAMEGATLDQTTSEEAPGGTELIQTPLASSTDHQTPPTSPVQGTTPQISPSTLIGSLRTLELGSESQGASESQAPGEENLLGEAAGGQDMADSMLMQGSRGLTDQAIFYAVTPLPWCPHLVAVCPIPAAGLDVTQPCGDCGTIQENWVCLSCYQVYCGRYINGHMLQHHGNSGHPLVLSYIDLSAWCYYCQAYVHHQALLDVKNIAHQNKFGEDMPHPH

[5] = target: T2, Histone deacetylase 8 (Homo sapiens, UniProt Q9BY41); assay: Inhibition of HDAC8 (unknown origin) after 2.5 hrs by SAMDI mass spectroscopic analysis
T2 sequence (Q9BY41 whole entry): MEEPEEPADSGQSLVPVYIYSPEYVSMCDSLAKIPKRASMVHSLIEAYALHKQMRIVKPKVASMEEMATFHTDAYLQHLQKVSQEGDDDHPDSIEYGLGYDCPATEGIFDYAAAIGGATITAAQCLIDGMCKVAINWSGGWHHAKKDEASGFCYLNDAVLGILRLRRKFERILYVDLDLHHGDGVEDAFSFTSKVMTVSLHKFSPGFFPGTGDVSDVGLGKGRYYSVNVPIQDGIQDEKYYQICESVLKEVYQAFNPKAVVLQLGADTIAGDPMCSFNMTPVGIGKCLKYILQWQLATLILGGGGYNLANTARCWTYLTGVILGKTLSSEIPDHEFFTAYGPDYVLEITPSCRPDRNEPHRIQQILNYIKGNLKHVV

[6] = target: T3, Prostaglandin G/H synthase 1 (Ovis aries) (UniProt P05979); assay: Inhibition of sheep COX1 at 10 uM using arachidonic acid as substrate preincubated for 15 mins followed by substrate addition for 2 mins by Cayman based fluorescence assay
T3 sequence (whole entry): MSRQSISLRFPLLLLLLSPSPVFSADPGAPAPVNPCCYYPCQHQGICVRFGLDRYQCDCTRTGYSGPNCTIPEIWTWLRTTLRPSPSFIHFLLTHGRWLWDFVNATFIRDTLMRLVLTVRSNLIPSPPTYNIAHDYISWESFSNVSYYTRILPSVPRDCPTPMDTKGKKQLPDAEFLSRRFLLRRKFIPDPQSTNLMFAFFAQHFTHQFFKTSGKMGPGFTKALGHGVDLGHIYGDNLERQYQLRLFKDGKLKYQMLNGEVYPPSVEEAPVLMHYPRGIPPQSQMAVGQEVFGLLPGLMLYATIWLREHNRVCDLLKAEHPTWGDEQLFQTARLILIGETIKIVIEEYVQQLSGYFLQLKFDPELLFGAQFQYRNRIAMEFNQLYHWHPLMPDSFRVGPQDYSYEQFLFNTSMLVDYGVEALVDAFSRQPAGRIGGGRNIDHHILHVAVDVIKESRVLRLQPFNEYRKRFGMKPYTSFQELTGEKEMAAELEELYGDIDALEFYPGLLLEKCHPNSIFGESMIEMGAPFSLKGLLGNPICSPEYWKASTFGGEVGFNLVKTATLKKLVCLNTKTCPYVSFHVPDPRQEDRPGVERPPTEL

[7] = target: T4, Prostaglandin G/H synthase 2 (Homo sapiens) (UniProt P35354); assay: Inhibition of recombinant human COX2 at 10 uM using arachidonic acid as substrate preincubated for 15 mins followed by substrate addition for 2 mins by Cayman based fluorescence assay
T4 sequence (whole entry): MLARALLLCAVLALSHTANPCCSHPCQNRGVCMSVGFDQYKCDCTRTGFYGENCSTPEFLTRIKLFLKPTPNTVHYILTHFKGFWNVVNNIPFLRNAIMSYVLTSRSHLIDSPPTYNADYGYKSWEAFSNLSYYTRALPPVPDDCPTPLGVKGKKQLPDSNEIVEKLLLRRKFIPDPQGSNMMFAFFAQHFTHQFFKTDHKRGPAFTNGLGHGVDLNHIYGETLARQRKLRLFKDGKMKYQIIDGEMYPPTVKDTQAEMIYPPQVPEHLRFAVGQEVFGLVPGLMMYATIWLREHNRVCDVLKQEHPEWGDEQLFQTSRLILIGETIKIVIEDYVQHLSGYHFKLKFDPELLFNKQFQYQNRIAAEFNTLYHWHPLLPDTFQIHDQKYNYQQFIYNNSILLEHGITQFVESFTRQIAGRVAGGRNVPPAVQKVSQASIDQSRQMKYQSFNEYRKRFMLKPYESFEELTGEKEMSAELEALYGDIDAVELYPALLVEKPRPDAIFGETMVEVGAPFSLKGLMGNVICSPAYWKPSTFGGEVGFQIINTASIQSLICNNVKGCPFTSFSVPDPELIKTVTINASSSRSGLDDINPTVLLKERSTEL

[8] = Cytotoxicity against human MCF7 cells assessed as cell growth inhibition after 72 hrs by MTT assay; assay type: functional, cell-based; settings: MCF7, 72 h
[9] = Cytotoxicity against human A549 cells assessed as cell growth inhibition after 72 hrs by MTT assay; assay type: functional, cell-based; settings: A549, 72 h
[10] = Cytotoxicity against human HCT116 cells assessed as cell growth inhibition after 72 hrs by MTT assay; assay type: functional, cell-based; settings: HCT-116, 72 h
[11] = Cytotoxicity against human LNCAP cells assessed as cell growth inhibition after 72 hrs by MTT assay; assay type: functional, cell-based
[12] = Cytotoxicity against African green monkey Vero cells assessed as cell growth inhibition after 72 hrs by MTT assay; assay type: toxicity, cell-based; settings: African green monkey (Chlorocebus sabaeus)
[13] = Cytotoxicity against human HeLa cells assessed as cell growth inhibition after 72 hrs by MTT assay
[14] = test system: LNCaP; assay: Induction of cell cycle arrest in human LNCAP cells assessed as accumulation at lesser G1 phase at 2.5 uM after 24 hrs by propidium iodide staining based FACS analysis (reference value: 1.59%); assay type: functional
[15] = test system: LNCaP; assay: Induction of cell cycle arrest in human LNCAP cells assessed as accumulation at G1 phase at 2.5 uM after 24 hrs by propidium iodide staining based FACS analysis (reference value: 69.5%); assay type: functional
[16] = test system: LNCaP; assay: Induction of cell cycle arrest in human LNCAP cells assessed as accumulation at S phase at 2.5 uM after 24 hrs by propidium iodide staining based FACS analysis (reference value: […]); assay type: functional
[17] = test system: LNCaP; assay: Induction of cell cycle arrest in human LNCAP cells assessed as accumulation at G2 phase at 2.5 uM after 24 hrs by propidium iodide staining based FACS analysis (reference value: 1.08%); assay type: functional
[18] = test system: LNCaP; assay: Induction of cell cycle arrest in human LNCAP cells assessed as accumulation at greater G2 phase at 2.5 uM after 24 hrs by propidium iodide staining based FACS analysis (reference value: 0.20%); assay type: functional
[19] = target: T5, Prostaglandin G/H synthase 2 (Homo sapiens, UniProt P35354); assay: Inhibition of recombinant human COX2 using arachidonic acid as substrate preincubated for 15 mins followed by substrate addition for 2 mins by Cayman based fluorescence assay
T5 sequence (P35354 whole entry): T4 sequence (whole entry)

[20] = target: T6, Prostaglandin G/H synthase 1 (Ovis aries, UniProt P05979); assay: Inhibition of sheep COX1 using arachidonic acid as substrate preincubated for 15 mins followed by substrate addition for 2 mins by Cayman based fluorescence assay
T6 sequence (P05979 whole entry): T3 sequence (whole entry)

Chain of Histone deacetylase 1 (Q13547 whole entry): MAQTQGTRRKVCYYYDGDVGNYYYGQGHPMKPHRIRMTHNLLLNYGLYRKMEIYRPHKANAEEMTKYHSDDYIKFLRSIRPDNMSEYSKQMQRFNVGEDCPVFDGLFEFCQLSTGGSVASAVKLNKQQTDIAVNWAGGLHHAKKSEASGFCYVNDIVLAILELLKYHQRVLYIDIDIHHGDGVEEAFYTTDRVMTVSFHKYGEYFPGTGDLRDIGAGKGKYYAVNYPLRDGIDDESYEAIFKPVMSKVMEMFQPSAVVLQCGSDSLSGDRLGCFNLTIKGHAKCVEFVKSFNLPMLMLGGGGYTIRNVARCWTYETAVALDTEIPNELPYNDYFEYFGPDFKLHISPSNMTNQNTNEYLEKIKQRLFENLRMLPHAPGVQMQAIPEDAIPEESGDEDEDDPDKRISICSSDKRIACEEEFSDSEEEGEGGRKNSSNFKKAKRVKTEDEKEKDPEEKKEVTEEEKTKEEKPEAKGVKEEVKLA

| Compound | IC50 [1] | IC50 [2] | IC50 [3] | IC50 [4] | IC50 [5] | inhibition [6] | inhibition [7] | IC50 [8] | IC50 [9] | IC50 [10] | IC50 [11] | IC50 at 72 h [12] | IC50 [13] | Activity [14] | Activity [15] | Activity [16] | Activity [17] | Activity [18] | IC50 [19] | IC50 [20] |
| --- | --- | --- | --- | --- | --- | --- | --- | --- | --- | --- | --- | --- | --- | --- | --- | --- | --- | --- | --- | --- |
| Cc1ccc(-c2cc(C(F)(F)F)nn2-c2ccc(S(=O)(=O)NCCCCCC(=O)NO)cc2)cc1 | 1870 nM | 2060 nM | 1020 nM | 76 nM | 226 nM | 16.2% | 97.7% | 7770 nM | 10400 nM | 8740 nM | 8880 nM | 6830 nM |  |  |  |  |  |  |  |  |
| O=C(CCCCCCC(=O)Nc1ccccc1)NO [VORINOSTAT] |  |  |  |  |  |  |  |  |  |  |  | 1030 nM | 2120 nM | -4.88% | 85.6% | 18.4% | 0.69% | 0.31% |  |  |
| COC(=O)Cc1c(C)n(Cc2ccc(-c3cn(CCCCCCCC(=O)NO)nn3)cc2)c2ccc(OC)cc12 | 251 nM | 209 nM | 181 nM | 5 nM | 394 nM | 7.08% | 78.2% |  |  | 1280 nM | 1530 nM | 5730 nM |  |  |  |  |  |  | 4580 nM | 12000 nM |
| Cc1ccc(-c2cc(C(=O)NCCCCCCC(=O)NO)nn2-c2ccc(S(N)(=O)=O)cc2)cc1 | 208 nM | 294 nM | 333 nM | 83 nM | 520 nM | 26.4% | 71.1% | > 100000 nM | > 100000 nM | 25000 nM | > 20000 nM | > 100000 nM |  |  |  |  |  |  |  |  |
| COC(=O)Cc1c(C)n(Cc2ccc(-c3cn(CCCCCC(=O)NO)nn3)cc2)c2ccc(OC)cc12 | 778 nM | 1360 nM | 224 nM | 6830 nM | 672 nM |  | 11.5% | 14200 nM |  | 9310 nM | > 20000 nM | 37800 nM |  |  |  |  |  |  |  |  |
| Cc1ccc(-c2cc(C(=O)NCCCCCCCC(=O)NO)nn2-c2ccc(S(N)(=O)=O)cc2)cc1 | 60 nM | 32 nM | 33 nM | 183 nM | 697 nM |  | 66.9% | 59500 nM | 34100 nM | 7120 nM | > 20000 nM | 12100 nM |  |  |  |  |  |  |  |  |
| Cc1ccc(-c2cc(C(=O)NCCCCCC(=O)NO)nn2-c2ccc(S(N)(=O)=O)cc2)cc1 | 400 nM | 232 nM | 191 nM | 92 nM | 544 nM |  | 19.1% | > 100000 nM | > 100000 nM |  |  | > 100000 nM |  |  |  |  |  |  |  |  |
